Earlier results, collected in patent publication US20130129827A1, “EXTENDED RELEASE PHARMACEUTICAL COMPOSITIONS OF PALIPERIDONE AND PROCESSES OF PREPARATION THEREOF” (RANBAXY LABORATORIES LIMITED, priority 2009, published 2013).

Settings: background statement, species not given

## Cc1nc2n(c(=O)c1CCN1CCC(c3noc4cc(F)ccc34)CC1)CCCC2O (racemic) [Paliperidone, (±)-3-[2-[4-(6-fluoro-1,2-benzisoxazol-3-yl)-1-piperidinyl]ethyl]-6,7,8,9-tetrahydro-9-hydroxy-2-methyl-4H-pyrido[1,2-a]pyrimidin-4-one]
  half-life: about a day
